Data from patent US20260001893A1, “SMALL MOLECULE MODULATORS OF STAT6” (Gilead Sciences, Inc., priority 2024, published 2026).

Columns and labels:
[1] = target: T1, Human STAT6 (truncated, aa122-658, with N-terminal His-tag) (Homo sapiens, UniProt P42226); assay: Surface plasmon resonance (SPR) assay, binding to human STAT6; conditions: Biacore 8K, 25° C, immobilized human STAT6 on CM5 chip, multi-cycle kinetics; geometric mean
T1 construct: Human STAT6 (truncated, aa122-658, with N-terminal His-tag, expressed in insect cells); His-tag (N); made in house; host or cells: insect cells
T1 sequence (P42226 122-658): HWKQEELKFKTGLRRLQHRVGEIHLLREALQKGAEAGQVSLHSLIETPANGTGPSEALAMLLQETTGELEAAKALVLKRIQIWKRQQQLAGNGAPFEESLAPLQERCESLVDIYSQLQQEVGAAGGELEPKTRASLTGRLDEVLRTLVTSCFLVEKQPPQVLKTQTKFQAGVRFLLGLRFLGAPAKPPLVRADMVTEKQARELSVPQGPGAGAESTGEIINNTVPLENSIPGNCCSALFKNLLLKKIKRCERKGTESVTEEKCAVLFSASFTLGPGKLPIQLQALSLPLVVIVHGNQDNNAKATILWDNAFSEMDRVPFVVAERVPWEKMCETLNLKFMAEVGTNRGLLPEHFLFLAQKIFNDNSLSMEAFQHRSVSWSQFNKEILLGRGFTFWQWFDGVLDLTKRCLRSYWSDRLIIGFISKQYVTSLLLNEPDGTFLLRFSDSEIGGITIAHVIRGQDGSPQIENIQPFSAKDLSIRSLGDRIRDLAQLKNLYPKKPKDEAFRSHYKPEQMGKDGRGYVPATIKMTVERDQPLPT
Experimental: Surface Plasmon Resonance Assay
Biacore instruments from the 8K-series (Cytiva) were used, and measurements were performed at 25° C. Human STAT6 (truncated, aa122-658, with N-terminal His-tag, expressed in insect cells) was immobilized in the active flow cells on a CM5 chip using amine-coupling (default settings) at 10 μg/ml in 10 mM acetate buffer pH 5.5, at a contact time of 120-420 sec. and a flow rate of 10 μl/min. Reference flow cells were deactivated using blank immobilization. PBS-P+(Cytiva) supplemented with 2% DMSO was used as running buffer, and solvent correction was applied. Compounds were tested by multi-cycle kinetics injections using a contact time of 60 sec., dissociation time of up to 300 sec., and a flow rate of 30 μl/min.
Solvent-corrected, reference-subtracted and blank-corrected data was processed and binding isotherms were fitted according to a single report point from each sensorgram (Standard: Late binding (5 sec. before injection end); alternative: Earlier report point according to binding profile). Data fitting was done both with unfixed Rmax and with Rmax fixed to the theoretical value* assuming 1:1 binding to allow processing of data from both weak and strong binders as well as to evaluate binding stoichiometry.
Positive controls were run at the beginning, during, and at the end of the screen to evaluate surface activity.
*Equation for calculation of the theoretical Rmax(Theoretical Rmax=(MW Analyte/MW Ligand)×immobilization level).

[2] = system: Eotaxin-3 (CCL26) release in human whole blood stimulated with IL-4; assay: Human whole blood eotaxin-3 assay (IL-4 stimulated eotaxin-3 release); format: cell-based; conditions: Homo sapiens, 48 h, human whole blood stimulated with recombinant human IL-4, 48 h, geometric mean; for EC50: inhibition of eotaxin-3 release, given for test compounds with >80% Emax; for Emax: given for test compounds with <80% Emax
How it was run: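 Eotaxin-3 (CCL26) release was quantified by MSD immunoassay in supernatants of human heparinised whole blood after 48 h at 37° C with IL-4 ([…] final). Compounds, in 4-fold dilutions at 0.5% DMSO, were added 2 h before stimulation.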

Row | Compound | Kd [1] | EC50 [2] | Emax [2]
1 | CNc1ccn(-c2ccnc3c2cc([C@@H](C)N2CCC(c4ccc(C(=O)N(C)C)cc4)CC2)n3C)c(=O)c1 (single isomer, unassigned) [Example 1m73] | 12.1 nM | 26 nM | –
2 | CN(C)C(=O)c1ccc(C2CCN(Cc3cc4c(-n5cc(F)c(N)nc5=O)ccnc4n3C)CC2)cc1 [Example 1ac2, 4-(1-((4-(4-Amino-5-fluoro-2-oxopyrimidin-1 (2H)-yl)-1-methyl-1H-pyrrolo[2,3-b]pyridin-2-yl)methyl)piperidin-4-yl)-N,N-dimethylbenzamide] | 75.4 nM | – | 70 to 80%
3 | CNc1ccn(-c2ccnc3c2cc(CN2CCN(c4ccc(C(=O)N(C)C)cc4C)C[C@H]2C)n3C)c(=O)c1 [Example 1m19, (R)—N,N,3-Trimethyl-4-(3-methyl-4-((1-methyl-4-(4-(methylamino)-2-oxopyridin-1 (2H)-yl)-1H-pyrrolo[2,3-b]pyridin-2-yl)methyl)piperazin-1-yl)benzamide] | 23.5 nM | 122 nM | –
4 | CN(C)C(=O)c1ccc(C2CCN(Cc3cc4c(-n5ccc(N)c(C(F)(F)F)c5=O)ccnc4n3C)CC2)cc1 [Example 1d29, 4-[1-[[4-[4-Amino-2-oxo-3-(trifluoromethyl)-1-pyridyl]-1-methyl-pyrrolo[2,3-b]pyridin-2-yl]methyl]-4-piperidyl]-N,N-dimethyl-benzamide] | 28.6 nM | 588 nM | –
5 | CN(C)C(=O)c1ccc(C2CCN(Cc3cc4c(-n5ccc6c(c5=O)CCN6)ccnc4n3C)CC2)cc1 [Example 1d23, N,N-Dimethyl-4-[1-[[1-methyl-4-(4-oxo-2,3-dihydro-1H-pyrrolo[3,2-c]pyridin-5-yl)pyrrolo[2,3-b]pyridin-2-yl]methyl]-4-piperidyl]benzamide] | 21.8 nM | – | 70 to 80%
6 | CNc1ccn(-c2ccnc3c2cc(CN2CCC(c4ccc(C(=O)N(C)C)cc4C)CC2)n3C)c(=O)c1 [Example 1d25, N,N,3-Trimethyl-4-[1-[[1-methyl-4-[4-(methylamino)-2-oxo-1-pyridyl]pyrrolo[2,3-b]pyridin-2-yl]methyl]-4-piperidyl]benzamide] | 69.2 nM | – | 70 to 80%
7 | CNc1ccn(-c2ccnc3c2cc(CN2CC[C@H](c4ccc(C(=O)N(C)C)cc4)C(F)(F)C2)n3C)c(=O)c1 (stereo in doubt) [Example 1f1, N,N-Dimethyl-4-[(4R)-3,3-difluoro-1-[[1-methyl-4-[4-(methylamino)-2-oxo-1-pyridyl]pyrrolo[2,3-b]pyridin-2-yl]methyl]-4-piperidyl]-benzamide] | 15 nM | 98.5 nM | –
8 | CNc1ccn(-c2ccnc3c2cc(CN2CCC(c4ccc(C(=O)N(C)C)cc4)CC2=O)n3C)c(=O)c1 (stereo not drawn) [Example 1f8, N,N-Dimethyl-4-[1-[[1-methyl-4-[4-(methylamino)-2-oxo-1-pyridyl]pyrrolo[2,3-b]pyridin-2-yl]methyl]-2-oxo-4-piperidyl]benzamide] | 134 nM | 957 nM | –
9 | CNc1ccn(-c2ccnc3c2cc(CN2CC=C(c4ncc(C(=O)N(C)C)cc4F)CC2)n3C)c(=O)c1 [Example 1m67, 5-Fluoro-N,N-dimethyl-6-[1-[[1-methyl-4-[4-(methylamino)-2-oxo-1-pyridyl]pyrrolo[2,3-b]pyridin-2-yl]methyl]-3,6-dihydro-2H-pyridin-4-yl]pyridine-3-carboxamide] | 33.4 nM | 80.1 nM | –
10 | CN(C)C(=O)c1ccc(C2CCN(Cc3cc4c(-n5ccc6[nH]nc(C(F)(F)F)c6c5=O)ccnc4n3C)C(=O)C2)cc1 (single isomer, unassigned) [Example 1ab1] | 61 nM | – | 30 to 40%
11 | CNc1ccn(-c2ccnc3c2cc(CN2CCN(c4ccc(C(=O)N(C)C)cc4C)C[C@@H]2C)n3C)c(=O)c1 [Example 1m18, (S)—N,N,3-Trimethyl-4-(3-methyl-4-((1-methyl-4-(4-(methylamino)-2-oxopyridin-1 (2H)-yl)-1H-pyrrolo[2,3-b]pyridin-2-yl)methyl)piperazin-1-yl)benzamide] | 18.9 nM | 53.6 nM | –
12 | CNc1ccn(-c2ccnc3c2cc(CN2CC=C(c4ccc(C(=O)N(C)C)cc4)CC2)n3C)c(=O)c1 [Example 1m35, N,N-Dimethyl-4-(1-((1-methyl-4-(4-(methylamino)-2-oxopyridin-1 (2H)-yl)-1H-pyrrolo[2,3-b]pyridin-2-yl)methyl)-1,2,3,6-tetrahydropyridin-4-yl)benzamide] | 35 nM | – | 40 to 50%
13 | CNc1ccn(-c2ccnc3c2cc(CN2CC=C(c4c(C)cc(C(=O)N(C)C)cc4C)CC2)n3C)c(=O)c1 [Example 1m12, N,N,3,5-Tetramethyl-4-(1-((1-methyl-4-(4-(methylamino)-2-oxopyridin-1 (2H)-yl)-1H-pyrrolo[2,3-b]pyridin-2-yl)methyl)-1,2,3,6-tetrahydropyridin-4-yl)benzamide] | 8.66 nM | 15.6 nM | –
14 | CN(C)C(=O)c1ccc(C2CCN(Cc3cc4c(-n5ccc6[nH]nc(C(F)(F)F)c6c5=O)ccnc4n3C)CC2)cc1 [Example 1ab3, N,N-Dimethyl-4-(1-((1-methyl-4-(4-oxo-3-(trifluoromethyl)-1,4-dihydro-5H-pyrazolo[4,3-c]pyridin-5-yl)-1H-pyrrolo[2,3-b]pyridin-2-yl)methyl)piperidin-4-yl)benzamide] | 20.4 nM | 193 nM | –
15 | CNc1ccn(-c2ccnc3c2cc(CN2CCC(c4c(C)cc(C(=O)N(C)C)cc4C)CC2)n3C)c(=O)c1 [Example 1d27, N,N,3,5-Tetramethyl-4-[1-[[1-methyl-4-[4-(methylamino)-2-oxo-1-pyridyl]pyrrolo[2,3-b]pyridin-2-yl]methyl]-4-piperidyl]benzamide] | 16 nM | 25.1 nM | –
16 | CN(C)C(=O)c1ccc(C2CCN(Cc3cc4c(-n5ccc(N)c(COC(C)(C)C)c5=O)ccnc4n3C)CC2)cc1 [Example 1d39, 4-[1-[[4-[4-Amino-3-(tert-butoxymethyl)-2-oxo-1-pyridyl]-1-methyl-pyrrolo[2,3-b]pyridin-2-yl]methyl]-4-piperidyl]-N,N-dimethyl-benzamide] | 98.7 nM | 961 nM | –
17 | CNc1ccn(-c2ccnc3c2cc(CN2CCC(c4ccc(C(=O)N(C)C)cc4)CC2)n3C)c(=O)c1 [Example 1d3, N,N-Dimethyl-4-[1-[[1-methyl-4-[4-(methylamino)-2-oxo-1-pyridyl]pyrrolo[2,3-b]pyridin-2-yl]methyl]-4-piperidyl]benzamide] | 18.2 nM | 84.1 nM | –
18 | [2H]C([2H])([2H])N(C(=O)c1ccc(C2=CCN(Cc3cc4c(-n5ccc(NC)cc5=O)ccnc4n3C)CC2)c(C)c1)C([2H])([2H])[2H] [Example 1m10, 3-Methyl-N,N-bis(methyl-d3)-4-(1-((1-methyl-4-(4-(methylamino)-2-oxopyridin-1 (2H)-yl)-1H-pyrrolo[2,3-b]pyridin-2-yl)methyl)-1,2,3,6-tetrahydropyridin-4-yl)benzamide] | 9.57 nM | 37.4 nM | –
19 | CNc1ccn(-c2ccnc3c2cc(CN2CC[C@@H](c4ccc(C(=O)N(C)C)cc4)[C@H](F)C2)n3C)c(=O)c1 (single isomer, unassigned) [Example 1f4] | 32.2 nM | 205 nM | –
20 | [2H]C([2H])([2H])N(C(=O)c1ccc(C2CCN(Cc3cc4c(-n5ccc(NC)cc5=O)ccnc4n3C)CC2)cc1)C([2H])([2H])[2H] [Example 1d4, 4-[1-[[1-Methyl-4-[4-(methylamino)-2-oxo-1-pyridyl]pyrrolo[2,3-b]pyridin-2-yl]methyl]-4-piperidyl]-N,N-bis(trideuteriomethyl)benzamide] | 20.9 nM | 221 nM | –
21 | CNc1ccn(-c2ccnc3c2cc(CN2CC=C(c4ccc(C(=O)N(C)C)cc4C)CC2)n3C)c(=O)c1 [Example 1m9, N,N,3-Trimethyl-4-(1-((1-methyl-4-(4-(methylamino)-2-oxopyridin-1 (2H)-yl)-1H-pyrrolo[2,3-b]pyridin-2-yl)methyl)-1,2,3,6-tetrahydropyridin-4-yl)benzamide] | 11.8 nM | 32.1 nM | –
